Data reported in patent publication US4386103A, “Dichloroamino acid derivatives useful as potent germicidal and fungicidal agents” (Merck & Co., Inc., priority 1981, dated 1983).

How the values were obtained:
Format in all cases: cell-based
[1] = tested on: Staphylococcus epidermidis; assay: Contact germicidal screen, Staphylococcus epidermidis ATCC No. 12228
Protocol: The organisms used in the contact germicidal screen are all maintained as stock cultures on nutrient agar […] 4° C. They are transferred and biochemically diagnosed monthly. The five organisms used are: The media used are: […] Overnight cultures of the test organisms are grown in tryptose phosphate broth. After 15-16 hours, the cultures are centrifuged at […] for 15 minutes, and the supernatant replaced with fresh warm (37° C.) media. After two hours of incubation, the absorbance of the culture at 650 nm is determined and diluted with nutrient broth to 1×10^7 colony forming units per ml (using a previous determined standard curve: colony forming units/ml vs. absorbance at 650). The diluted cultures are maintained at 4°-8° C. throughout the screen. The compounds are weighed into sterile 100 ml volumetric flasks, and immediately before screening dissolved in one of the following buffers: 0.1 M NaOAc pH 4.6 or 0.1 M NaH2 PO4 pH 7.0. If solubility poses a problem, 10-30% methanol is used to effect solution. Two denaturing agents are also tested: […] Horse Serum restored with 100 ml distilled water and 10% Trition×100. When used, 2.5 ml of the denaturing agent is mixed with 2.5 ml of double strength test solution thirty minutes before the bacterial suspension is added. The screen is initiated when 0.2 ml of the bacterial suspension is added to 5.0 ml of the test solution contained in a sterile 25 ml glass stoppered flask. At intervals of 0.5, 2.5, 5.0, 10.0 and 15.0 minutes, a loopful of the inoculated test solution is subcultured into 5 ml of sterile nutrient broth and mixed with a vortex, the high dilution serving to stop the action of the compound. All of the subculture tubes are incubated at 37° C. and checked for signs of growth by turbidity at 1, 3, 5 and 7 days. The earliest subculture time at which no growth is present is considered the endpoint and is recorded as the sterilization time. An aliquot of 0.2 ml of the diluted culture is transferred to 5 ml of buffer to simulate 0.2 ml in 5 ml of test solution. (a) Purity: A loopful of the inoculated buffer is streaked onto nutrient agar to check colony morphology and lack of contaminants. (b) Viability: A loopful of the inoculated buffer is subcultured to 5 ml of nutrient broth as in the screen and incubated at 37° C. for 24 hours. (c) Dilution of the Test Solution: A loopful of the test solution is transferred to a 5 ml tube of nutrient broth, and a loopful of the inoculated buffer is transferred to the same tube of broth. […] (d) Purity of Organisms in the Test Solution: After the 15 minute subculture, a loopful of the inoculated test solution is streaked onto nutrient agar to insure that contamination has not occurred during the screen. (e) lack of Bactericidal Activity of Buffers and Other Solvents: Before a buffer or other solvent is used as a diluent, it is screened against the five organisms to insure that the buffer or solvent has no antibacterial activity itself.

Aspergillus fumigatus = assay: Contact fungicidal screen, Aspergillus fumigatus; conditions: 0.1M NaOAc pH 4.6
Protocol: (§1) The organisms used in the Contact Fungicidal Screen are a dermatophyte, trychophyton mentagrophytes, frequently associated with athlete's foot; a yeast, Candida albican, causative agent of thrush and vaginitis; a phycomycete, Rhizopus oryzae, commonly known as black bread mold; an ascomycete, Aspergillus fumagatis, found in chicken droppings and causing lung infections; and another dermatophyte, Microsporum canis, which causes ringworm. These organisms are maintained as stock cultures at 4° C. on agar […] of the following composition: dextrose 2%, Neopeptone (Difco) 1%, agar 2%. Fluid medium of the same nutrient composition (without agar) was used to test the viability of the organisms after exposure to the fungicide. This medium is also known as Sabouraud's medium. Sabouraud's agar plate cultures of Aspergillus fumigatus, Microsporum canis, and a different culture of Trychophyton mentagrophytes are prepared by planting an inoculum at the center of an agar plate and incubating at 25°-30° C. for seven to ten days. The mycelial mats are removed from the surface of the agar and prepared in the same manner as the Rhizopus culture. The compounds are weighed into heat sterilized 100 ml volumetric flasks and immediately before screening dissolved in 0.1 M NaOAc pH 4.6 buffer (test solutions). The Aspergillus, Candida, Microsporum and Rhizopus species are screened in a slightly different manner. Basically, the procedure for the Contact Germicidal Efficiency Screen is utilized. After the test solutions are made up, 5 ml aliquots are pipetted into heat sterilized 25 ml glass stoppered erlenmeyer flasks. The screen is initiated when 0.5 ml of the 5×10^6 cell (spore) per ml suspension is added to the flask containing 5 ml of the test solution. […] The subculture tubes are incubated at 25°-30° C. for ten days with daily observation for mycelial growth. The earliest subculture time at which no growth is present is considered the endpoint and is recorded as the sterilization time. To insure the viability of the culture, a 0.5 ml aliquot of the 5×10^6 cells (spores) per ml suspension is transferred to 5 ml of the pH 4.6 buffer. A loopful of the inoculated buffer is then subcultured to 7 ml of fluid Sabouraud's medium and incubated at 25°-30° C. for ten days. To insure that the dilution of the test solution into the subculture medium does stop the action, a loopful of the test solution and a loopful of the inoculated buffer are transferred into the same subculture tube. This tube is also incubated at 25°-30° C. for ten days.

Microsporum canis = assay: Contact fungicidal screen, Microsporum canis; conditions: 0.1M NaOAc pH 4.6
Protocol: as §1

[2] = tested on: Trychophyton mentagrophytes; assay: Contact fungicidal screen, Trychophyton mentagrophytes; conditions: 0.1M NaOAc pH 4.6
[3] = 10.0+ PPM, 0.1M NaOAc pH 4.6, screened simultaneously with four other compounds
[4] = 300 PPM with 50% Horse Serum, 0.1M NaOAc pH 4.6
[5] = 300 PPM with 50% Triton X100, 0.1M NaOAc pH 4.6
[6] = 1000 PPM with 50% Horse Serum, 0.1M NaOAc pH 4.6

Row | SMILES | Sterilization Time [1, 3] | Sterilization Time (summary) ([1]; 10 PPM, 0.1M NaOAc pH 4.6) | Sterilization Time (summary) ([1]; 100 PPM, 0.1M NaOAc pH 4.6) | Sterilization Time (summary) [1, 4] | Sterilization Time (summary) [1, 5] | Sterilization Time (summary) [1, 6] | Sterilization Time (summary) ([1]; 1000 PPM, 0.1M NaOAc pH 4.6) | Sterilization Time (Aspergillus fumigatus; 10 PPM) | Sterilization Time (Aspergillus fumigatus; 100 PPM) | Sterilization Time (Aspergillus fumigatus; 1000 PPM) | Sterilization Time (Microsporum canis; 10 PPM) | Sterilization Time (Microsporum canis; 100 PPM) | Sterilization Time (Microsporum canis; 1000 PPM) | Sterilization Time ([2]; 10 PPM) | Sterilization Time ([2]; 100 PPM) | Sterilization Time ([2]; 1000 PPM) | further results
1 | CC(C)(CCC(=O)O)N(Cl)Cl [(III), 4-Dichloroamino-4-methylvaleric acid] | 10.0 min | 10.0 min | 0.5 min | 10.0 min | 2.5 min | 2.5 min | 0.5 min | 15 min | 15 min | 10.0 min | 15 min | 5.0 min | 0.5 min | 5.0 min | 0.5 min | 0.5 min | Sterilization Time ([1]; 9.6 PPM, 0.1M NaOAc pH 4.6): 5.0 min; Sterilization Time ([1]; 9.7 PPM, 0.1M NaH2PO4 pH 7.0): 15 min; Sterilization Time ([1]; 102.2 PPM, 0.1M NaOAc pH 4.6): 0.5 min; Sterilization Time ([1]; 103.5 PPM, 0.1M NaH2PO4 pH 7.0): 15 min; Sterilization Time ([1]; 308.0 PPM, Triton X100 (10% solution):pH 4.6 buffer 1:1): 2.5 min; Sterilization Time ([1]; 308.0 PPM, horse serum:pH 4.6 buffer 1:1): 10.0 min; Sterilization Time ([1]; 1000.0 PPM, horse serum:pH 4.6 buffer 1:1): 2.5 min; Sterilization Time ([1]; 1007.7 PPM, 0.1M NaOAc pH 4.6): 0.5 min; Sterilization Time ([1]; 1012.3 PPM, 0.1M NaH2PO4 pH 7.0): 5.0 min
2 | CC(C)(COC(=O)CCCC(=O)O)N(Cl)Cl [(V), 2-dichloramino-2-methylpropyl-hemiglutarate] | 10.0 min | 10.0 min | 2.5 min | 15 min | 2.5 min | 2.5 min | 0.5 min | 15 min | 15 min | 15 min | 15 min | 5.0 min | 2.5 min | 5.0 min | 2.5 min | 0.5 min | Sterilization Time ([1]; 10.0 PPM, 0.1M NaH2PO4 pH 7.0): 15 min; Sterilization Time ([1]; 10.0 PPM, 0.1M NaOAc pH 4.6): 10.0 min; Sterilization Time ([1]; 99.1 PPM, 0.1M NaOAc pH 4.6): 2.5 min; Sterilization Time ([1]; 106.7 PPM, 0.1M NaH2PO4 pH 7.0): 15 min; Sterilization Time ([1]; 291.4 PPM, Triton X100 (10% solution):pH 4.6 buffer 1:1): 2.5 min; Sterilization Time ([1]; 291.4 PPM, horse serum:pH 4.6 buffer 1:1): 15 min; Sterilization Time ([1]; 911.8 PPM, 0.1M NaOAc pH 4.6): 0.5 min; Sterilization Time ([1]; 1024.4 PPM, 0.1M NaH2PO4 pH 7.0): 10.0 min; Sterilization Time ([1]; 1042.0 PPM, horse serum:pH 4.6 buffer 1:1): 2.5 min
